Experimental data as given in patent US12552837B2, “Bicyclic peptide ligands with detectable moieties and uses thereof” (BicycleRD Limited, priority 2017, dated 2026).
*1 amine or outer side, *2 acyl side, *3 side chain or, on linkers, in order; H or OH if unused. Where a SMILES comes first, the peptide text is derived from it. Bridges are numbered along the chain shown (N, C = ends). [ ]: non-standard residue; d: D form. The star is where a group is joined. DOTA = O=C(O)CN1CCN(CC(=O)O)CCN(CC(=O)*)CCN(CC(=O)O)CC1; 1Nal = N[C@@H](Cc1cccc2ccccc12)C(=O)O; TBMB = c1c(C[*:1])cc(C[*:3])cc1C[*:2]; Tle = CC(C)(C)[C@H](N)C(=O)O

Molecular target: MT1-MMP hemopexin domain (Homo sapiens, UniProt P50281)
Assay: Fluorescence polarization direct binding / competition assay to MT1-MMP hemopexin domain
Protocol: Direct Binding Fluorescence Polarization or Anisotropy Assays are performed by titrating a constant concentration of fluorescent tracer (here, the fluoresceinated bicyclic peptide to be studied) with its binding partner (here, the MT1-MMP hemopexin domain). As the concentration of binding partner increases during the titration, the polarization signal changes in proportion to the fraction of bound and unbound material. This allows determination of […] (Kd) quantitatively. Assay data can be fit using standard ligand binding equations.
Typically, concentrations of the tracer are ideally well below the Kd of the tracer: titrant pair, and concentrations chosen are usually at ˜1 nM or less. The titrant (binding partner) concentration is varied from 0.1 nM up to typically 5 μM. The range is chosen such that the maximum change in fluorescent polarization can be observed. Buffers employed are phosphate buffered saline in the presence of 0.01% Tween. Experiments were run in black 384 well low-bind/low volume plates (Corning 3820), and the fluorescent polarization signal was measured using a BMG Pherastar FS plate reader. Fluorescent tracers referred to in the text are bicyclic peptides that have been fluoresceinated using 5,6-carboxyfluorescein. Fluoresceination may be performed on the N-terminal amino group of the peptide, which is separated from the bicycle core sequence by a sarcosine spacer (usually Sar10 (SEQ ID NO: 73)). This can be done during Fmoc solid phase synthesis or post-synthetically (after cyclization with the molecular scaffold reagent and purification) if the N-terminal amino group is unique to the peptide. Fluoresceination can also be performed on the C-terminus, usually on a Lysine introduced as the first C-terminal residue, which is then separated from the bicycle core sequence by a sarcosine spacer (usually Sar6 (SEQ ID NO: 69)). Thus, N-terminal tracers can have a molecular format described as Fluo-Ala-Sar10-A (SEQ ID NO: 72) (BicycleCoreSequence), and (BicycleCoreSequence)-A-Sar6-K (Fluo) (SEQ ID NO: 67) for a C-terminally fluoresceinated construct.
Fluorescent tracers used in the Examples are A-(17-69)-A-Sar6-K (Fluo) (SEQ ID NO: 67), A-(17-69-07)-A-Sar6-K (Fluo) (SEQ ID NO: 67), and A-(17-69-12)-A-Sar6-K (Fluo) (SEQ ID NO: 67). Due to the acidic nature of the 17-69 fluorescent peptides, they were typically prepared as concentrated DMSO stocks, from which dilution were prepared in 100 mM Tris pH 8 buffer.
Due to their high affinities to the MT1-MMP Hemopexin domain (PEX), the fluoresceinated derivatives of 17-69-07 and 17-69-12 (denoted as 17-69-07-N040 and 17-69-12-N005, respectively) can be used for competition experiments (using FP for detection). […] Dissociation of the complex can be measured quantitatively, and the Kd of the competitor (titrant) to the target protein determined. The advantage of the competition method is that the affinities of non-fluoresceinated bicyclic peptides can be determined accurately and rapidly.
Subsequently, the non-fluorescent competitor bicyclic peptide (usually just the bicycle core sequence) is titrated, such that it displaces the fluorescent tracer from the target protein. The displacement of the tracer is measured and associated with a drop in fluorescence polarization. The drop in fluorescence polarization is proportional to the fraction of target protein bound with the non-fluorescent titrant, and thus is a measure of the affinity of titrant to target protein. […]

C[C@H](NC(=O)CN1CCN(CC(=O)O)CCN(CC(=O)O)CCN(CC(=O)O)CC1)C(=O)N[C@H]1CSCc2cc3cc(c2)CSC[C@H](NC(=O)[C@@H](C)NC(=O)[C@H](Cc2cccc4ccccc24)NC(=O)[C@H](CCC(=O)O)NC(=O)[C@H](CC(N)=O)NC(=O)[C@@H](C)NC1=O)C(=O)N[C@@H](CCC(=O)O)C(=O)N[C@@H](CC(=O)O)C(=O)N[C@@H](Cc1ccccc1)C(=O)N[C@@H](Cc1ccc(O)cc1)C(=O)N[C@@H](CC(=O)O)C(=O)N[C@@H](C(C)(C)C)C(=O)N[C@H](C(N)=O)CSC3 [I-23] ({DOTA}-AC[dA]NE[1Nal][dA]CEDFYD[Tle]C-NH2; linker 2-8-15 via TBMB)
Kd: 0.52 ± 0.24 nM
